This note sets out measurements from ChEMBL document CHEMBL1125758, “(Acyloxy)alkyl carbamate prodrugs of norfloxacin” (J Med Chem, 1991).

Data set [1] is described as follows: Solubility in citrate buffer (0.1 M) at 25 degree centigrade(pH 5). Type of data set: physicochemical. The settings on record: for solubility: citrate buffer, read-out: S.
Data set [2] in a line: Solubility in bicarbonate buffer (0.05 M) at 25 degree centigrade(pH 8.5). The conditions noted are these: read-out: S. Type of data set: physicochemical.
Data set [3] in a line: Half life in a medium of dog serum. Type of data set: ADME, organism-based, Canis lupus familiaris.
The nature of data set [4]: Solubility in phosphate buffer (0.1 M) at 25 degree centigrade(pH 7.4). Type of data set: physicochemical.
The nature of data set [5]: Half life in a medium of rat serum. Type of data set: ADME, organism-based.
A short description of data set [6]: (§1) Urine conc 0-5 hours following 25 mg/kg dose. Type of data set: ADME, organism-based, Macaca mulatta. Also noted: dose 25 mg/kg. The settings on record: rhesus monkey, in vivo.
Data set [7] has as its system Klebsiella pneumoniae. In words: Antibacterial activity against Klebsiella pneumoniae (4005). Type of data set: functional.
Data set [8] relates to Enterobacter cloacae. In words: Antibacterial activity against Ent. cloacae P99- (2647). Type of data set: functional.
The test system of data set [9] is Staphylococcus aureus. In words: Antibacterial activity against Staphylococcus aureus (2865). It is filed as functional.
In data set [10] the test system is Escherichia coli. In words: Antibacterial activity against Escherichia coli (2891). Type of data set: functional.
For data set [11], the system named is Pseudomonas aeruginosa. In words: Antibacterial activity against Ps. aeruginosa (2835). It is filed as functional.
The subject of a further data set is Salmonella typhimurium. In words: Antibacterial activity against Sal. Typhimurium (3860). Type of data set: functional, Salmonella enterica subsp. enterica serovar Typhimurium. The settings on record: Salmonella enterica.
The test system of data set [12] is Klebsiella aerogenes. The data set can be described thus: Antibacterial activity against Ent. aerogenes (2828). Type of data set: functional.
A short description of data set [13]: (§2) Serum conc at 3 hours following 25 mg/kg dose. It is filed as ADME, organism-based, Macaca mulatta. The settings on record: rhesus monkey, read-out: Concentration_plasma. Also noted: dose 25 mg/kg.
The test system of data set [14] is Proteus mirabilis. In words: Antibacterial activity against Prot. mirabilis GmR (2830). Type of data set: functional.
Data set [15] has as its system Enterobacter cloacae. The data set can be described thus: Antibacterial activity against Ent. cloacae 99+ (2646). The conditions noted are these: P99. Type of data set: functional.
Data set [16] deals with Escherichia coli. In words: Antibacterial activity against Escherichia coli DC2 (4353). Type of data set: functional.
A further data set relates to Serratia marcescens. The data set can be described thus: Antibacterial activity against Ser. marcescens (2840). It is filed as functional.
Data set [17] deals with Klebsiella pneumoniae. The data set can be described thus: Antibacterial activity against Klebsiella pneumoniae K1+ (4354). Type of data set: functional.
The subject of data set [18] is Staphylococcus aureus. In words: Antibacterial activity against Staphylococcus aureus GmR Meth (4310). It is filed as functional.
A short description of data set [19]: Urine conc 0-24 hours following 25 mg/kg dose. It is filed as ADME, organism-based, Macaca mulatta. Also noted: dose 25 mg/kg. The conditions noted are these: rhesus monkey, in vivo.
The test system of the next data set is Enterococcus faecalis. In words: Antibacterial activity against Strep. faecalis (2864). Type of data set: functional.
The subject of the next data set is Monkey. In words: % dose recovered in urine. It is filed as functional, Cercopithecidae.
Data set [20] in a line: Solubility in water at 25 degree Centigrade. The settings on record: read-out: S. It is filed as physicochemical.
The test system of data set [21] is Escherichia coli. The data set can be described thus: Antibacterial activity against Escherichia coli TEM 2+ DC2 (4352). Type of data set: functional.
In data set [22] the test system is Morganella morganii. In words: Antibacterial activity against Prot. morganii SmR (2833). It is filed as functional.
For data set [23], the system named is Pseudomonas aeruginosa. In words: Antibacterial activity against Ps. aeruginosa RPL11+ (3350). Type of data set: functional.
Data set [24] concerns Proteus vulgaris. The data set can be described thus: Antibacterial activity against Prot. vulgaris (2829). Type of data set: functional.
Data set [25] concerns Staphylococcus aureus. In words: Antibacterial activity against Staphylococcus aureus (2868). It is filed as functional.
Data set [26] relates to Escherichia coli. The data set can be described thus: Antibacterial activity against Escherichia coli TEM 2+ (4351). Type of data set: functional.
Data set [27] deals with Pseudomonas aeruginosa. In words: Antibacterial activity against Ps. aeruginosa (4279). It is filed as functional.
The subject of data set [28] is Staphylococcus aureus. The data set can be described thus: Antibacterial activity against Staphylococcus aureus GmR Meth(4310). Type of data set: functional.
The nature of data set [29]: Half life in a medium of human serum. It is filed as ADME, organism-based.
The subject of data set [30] is Escherichia coli. The data set can be described thus: Antibacterial activity against Escherichia coli TEM 2+(4351). Type of data set: functional.
The test system of data set [31] is Proteus mirabilis. The data set can be described thus: Antibacterial activity against Prot. mirabilis GmR(2830). It is filed as functional.
Data set [32] deals with Escherichia coli. The data set can be described thus: Antibacterial activity against Escherichia coli TEM 2+ DC2(4352). It is filed as functional.
The subject of data set [33] is Rhesus monkey. Described as §1. It is filed as functional, Macaca mulatta.
Data set [34] has as its system Escherichia coli. In words: Antibacterial activity against Escherichia coli DC2(4353). It is filed as functional.
The subject of data set [35] is Morganella morganii. In words: Antibacterial activity against Prot. morganii SmR(2833). Type of data set: functional.
For data set [36], the system named is Klebsiella pneumoniae. The data set can be described thus: Antibacterial activity against Klebsiella pneumoniae K1+(4354). Type of data set: functional.
The subject of data set [37] is Pseudomonas aeruginosa. The data set can be described thus: Antibacterial activity against Ps. aeruginosa RPL11+(3350). It is filed as functional.
The test system of data set [38] is Enterobacter cloacae. In words: Antibacterial activity against Ent. cloacae 99+(2646). It is filed as functional. The conditions noted are these: P99.
In data set [39] the test system is Klebsiella aerogenes. In words: Antibacterial activity against Ent. aerogenes(2828). Type of data set: functional.
Another data set concerns Streptococcus sp. The data set can be described thus: Antibacterial activity against Strep. Faecalis (2864). Type of data set: functional.
The subject of data set [40] is Proteus vulgaris. In words: Antibacterial activity against Prot. vulgaris(2829). It is filed as functional.
Data set [41] in a line: Half life in a medium of phosphate buffer in pH 7.4. It is filed as ADME.
For data set [42], the system named is Pseudomonas aeruginosa. The data set can be described thus: Antibacterial activity against Ps. aeruginoa(2835). Type of data set: functional.
In data set [43] the test system is Pseudomonas aeruginosa. The data set can be described thus: Antibacterial activity against Ps. aeruginoa(4279). It is filed as functional.
In data set [44] the test system is Rhesus monkey. The data set is described as §2. It is filed as functional, Macaca mulatta.
A short description of data set [45]: Half life in a medium of rat intestinal homogenate. Type of data set: ADME.
The subject of data set [46] is Enterobacter cloacae. In words: Antibacterial activity against Ent. cloacae P99-(2647). It is filed as functional.
Data set [47] has as its system Rhesus monkey. The data set can be described thus: Urine conc 0-24 hours following 25mg/kg dose. It is filed as functional, Macaca mulatta.

The structures appear in SMILES notation. Converted amounts (≈) assume the structure as drawn.

One may read the half-life as the time in which the quantity being followed falls by half. Turning to `CCn1cc(C(=O)O)c(=O)c2cc(F)c(N3CCN(C(=O)OC(C)OC(C)=O)CC3)cc21` (centres undefined), the solubility was found to be 30 µg/mL (≈ 66.8 µM) in data set [1], 150 µg/mL (≈ 334 µM) in data set [2] and 60 µg/mL (≈ 134 µM) in data set [4]. The half-life in data set [3] came to 6 min; in data set [5] it was 1.5 min.
As a reminder, the MIC is the lowest concentration that inhibits growth of the organism. For `CCn1cc(C(=O)O)c(=O)c2cc(F)c(N3CCNCC3)cc21` [NORFLOXACIN], the figures for the Concentration_urine in data set [6] and in data set [19] were 175860 ng/mL and 33780 ng/mL, respectively. The MIC came to 0.06 µg/mL (≈ 0.188 µM) against Klebsiella pneumoniae [7]; 0.25 µg/mL (≈ 0.783 µM) in the data set on Enterobacter cloacae [8]; 0.25 µg/mL (≈ 0.783 µM) in the data set with Staphylococcus aureus [9]; 0.06 µg/mL (≈ 0.188 µM) against Escherichia coli [10]; 1 µg/mL (≈ 3.13 µM) against Pseudomonas aeruginosa [11]; 0.5 µg/mL (≈ 1.57 µM) in the data set on Salmonella typhimurium. The MIC turned out to be 0.5 µg/mL (≈ 1.57 µM) in the data set on Klebsiella aerogenes [12]; 0.06 µg/mL (≈ 0.188 µM) with Proteus mirabilis [14]; 1 µg/mL (≈ 3.13 µM) against Enterobacter cloacae [15]; 0.5 µg/mL (≈ 1.57 µM) against Escherichia coli [16]; 4 µg/mL (≈ 12.5 µM) in the data set with Serratia marcescens; 8 µg/mL (≈ 25.1 µM) in the data set on Klebsiella pneumoniae [17]. In addition, the MIC with Staphylococcus aureus [18] was determined as 1 µg/mL (≈ 3.13 µM); against Enterococcus faecalis, 8 µg/mL (≈ 25.1 µM); in the data set on Escherichia coli [21], 0.5 µg/mL (≈ 1.57 µM); with Morganella morganii [22], 0.06 µg/mL (≈ 0.188 µM); with Pseudomonas aeruginosa [23] it was 1 µg/mL (≈ 3.13 µM); in the data set with Proteus vulgaris [24] it was 0.06 µg/mL (≈ 0.188 µM). Also, the MIC is 1 µg/mL (≈ 3.13 µM) with Staphylococcus aureus [25]; 0.03 µg/mL (≈ 0.0939 µM) against Escherichia coli [26]; 0.03 µg/mL (≈ 0.0939 µM) in the data set with Escherichia coli [26] (Escherichia coli, read-out: MIC); 1 µg/mL (≈ 3.13 µM) in the data set with Pseudomonas aeruginosa [27]. The S in data set [1] (buffer) is 8 mg/mL. Also, the concentration at 3 h in [13] came to 760 ng/mL. Moreover, the solubility was 210 µg/mL (≈ 658 µM) in data set [2], 200 µg/mL (≈ 626 µM) in data set [4] and 190 µg/mL (≈ 595 µM) in data set [20]. Moreover, the Dose in the data set on Monkey turned out to be 16.3%.
Regarding `CCn1cc(C(=O)O)c(=O)c2cc(F)c(N3CCN(C(=O)OCOC(C)=O)CC3)cc21`, the MIC against Staphylococcus aureus [28] is 2 µg/mL (≈ 4.59 µM); with Escherichia coli [30], more than 128 µg/mL; in the data set on Proteus mirabilis [31] it was more than 128 µg/mL; in the data set on Klebsiella pneumoniae [7], 32 µg/mL (≈ 73.5 µM); against Escherichia coli [32], more than 128 µg/mL; against Staphylococcus aureus [9], 2 µg/mL (≈ 4.59 µM). For the same molecule, the MIC in the data set with Escherichia coli [10] is 128 µg/mL (≈ 294 µM); against Escherichia coli [34], more than 128 µg/mL; with Morganella morganii [35], 8 µg/mL (≈ 18.4 µM); with Salmonella typhimurium it was more than 128 µg/mL; against Klebsiella pneumoniae [36], more than 128 µg/mL; in the data set on Pseudomonas aeruginosa [37] it was more than 128 µg/mL. Besides, the MIC in the data set on Enterobacter cloacae [38], in the data set on Klebsiella aerogenes [39], against Streptococcus sp., against Proteus vulgaris [40], in the data set with Serratia marcescens and against Pseudomonas aeruginosa [42] was more than 128 µg/mL throughout. The MIC in the data set on Pseudomonas aeruginosa [43] was more than 128 µg/mL; in the data set on Enterobacter cloacae [46] it was more than 128 µg/mL; in the data set with Staphylococcus aureus [25] it was 1 µg/mL (≈ 2.3 µM). Also, the half-life came to 116 min in data set [29]; 6 min in data set [3]; 128 h in [41]; 2.6 min in [45]; 1.5 min in data set [5]. Further, the solubility in data set [1] came out at 5 µg/mL (≈ 11.5 µM); in data set [2], 410 µg/mL (≈ 942 µM); in [4] it was 50 µg/mL (≈ 115 µM); in data set [20], 60 µg/mL (≈ 138 µM). Besides, the Concentration_urine in the data set on Rhesus monkey [33] was 25.03 µg/mL; with Rhesus monkey [47], 21.97 µg/mL. The molecule further showed a Concentration_plasma with Rhesus monkey [44] of 0.36 µg/mL. The Dose in the data set with Monkey is 7.23%.
